# In US20040106635A1, “Spiroisoquinoline compound, a method for preparing the same and an intermediate thereof” (priority 2001, published 2004):
# What was measured:
# [1] = target: acetylcholinesterase (AChE) (Homo sapiens, UniProt P22303); test: Inhibitory activity on acetylcholinesterase (AChE), Ellman method; assay type: biochemical; details: 25° C., pH 7.4, in the presence of 1% BSA, absorbance at 412 nm
# Description: (Inhibitory Activity on acetylcholinesterase (AChE))
# Each test drug was dissolved in distilled water containing 0.1% BSA (pH 7.4). Hardly water-soluble test drugs were dissolved in dimethylsulfoxide followed by being diluted with distilled water containing 0.1% BSA (pH 7.4).
# Measurements of AChE activity were carried out according to the method described by Ellman et al (Biochem Pharmacol 7, 88-95, 1961). A solution of 12 mM 5,5,-dithiobis-(2-nitrobenzoic acid) (50 μL; final concentration: 0.3 mM), a solution of AChE (2-4 U/mL; 50 μL) and a test drug solution (50 μL) were added, in this order, to 110 mM phosphate buffer (1.8 mL; final concentration: 100 mM; pH 7.4) and the mixture was incubated for a predetermined period (3 to 60 minutes) at 25° C. After incubation, a solution of 20 mM acetylthiocholin iodide (50 μL; final concentration: 0.5 mM) was added to the mixture. Immediately after stirring the mixture, absorbance at 412 nm of the reaction mixture was measured. In terms of change in the absorbance per unit time (z,900 E/min), the AChE-inhibitory activity of the test drug (IC50) was calculated. Concomitantly, the measurements of the present experiment were carried out in the presence of 1% BSA.
# [2] = test system: guinea pig; test: Evaluation of evacuation-promoting activity (fecal pellets after clonidine); assay type: in vivo; details: 15 min after clonidine 30 μg/kg i.p., minimum dose with more fecal pellets than control at one hour
# Description: (Evaluation of Evacuation-Promoting Activity)
# Male Hartley guinea pigs (Age: 4 to 5 weeks; n=6 to 10/group)
# Each test drug was dissolved in distilled water. Hardly water-soluble test drugs were suspended in a 0.5% carboxymethyl cellulose solution. Dose of the test drug solution was 5 mL/kg.
# Guinea pigs (2 animals/cage) were encaged and acclimatized for a few days prior to the examinations. Fifteen minutes after the administration of clonidine (30 μg/kg, i.p.), each test compound solution (5 mL/kg) was administered intraperitoneally or orally to the animals. One hour after the administration of the test compound, number of evacuated fecal pellets in each cage was measured and recorded. Effective dose of the test compound was determined as a minimum dose in which the number of evacuated fecal pellets was grater than that in control group (group of guinea pigs to which clonidine and vehicle of the test compound were administered d).
# [3] = target: SK channel (specific binding of 125I-apamine to the membrane); test: Assay of 125I-apamine-binding inhibition (competitive binding to colon membrane fraction); details: guinea pig colon membrane 10 μg/mL, 125I-apamin 10 pM, 4° C., 60 minutes; read-out: 125I-apamine-binding inhibitory activity (IC50; μM)
# Description: (Assay of ^125I-Apamine-Binding Inhibition)
# Male Hartley guinea pigs (Age: 4 weeks or more)
# Each test drug was dissolved in a buffer (5 mM Tris-HCl, 5.4 mM KC1, 0.1% bovine serum albumin (BSA), pH 7.4; This buffer is hereinafter referred as buffer (3)). Hardly water-soluble test drugs were dissolved in dimethylsulfoxide followed by being diluted with buffer (3).
# The experiments were carried out according to the method described by Hugues et al (Life Sciences 31, 437-443, 1982) and Catterall et al (Journal of Biochemistry 254, 11379-11387, 1979).
# The colon was isolated from guinea pigs and mucosal cells were removed therefrom. The colon was homogenized together with a buffer solution (1)(40 mM Tris-HCl, 8% sucrose, pH 7.4) and the homogenate was centrifuged at 130,000 g for 60 minutes. The pellet was suspended in the buffer solution (1) and the suspension was layered on top of a discontinuous sucrose gradient composed of 33% sucrose and 40% sucrose. After centrifugation at 160,000 g for 90 minutes, the 8/33%-layer was collected and suspended in a buffer solution (2)(5 mM Tris-HCl, pH 7.4). The suspension was further centrifuged at 160,000 g for 60 minutes. The resultant pellet was suspended in buffer (3) at a final concentration of 500 μg of membrane protein per mL and used for binding assay (If necessary, this suspension was frozen and stored in a liquid nitrogen).
# The membrane (10 μg/mL), ^125I-apamin (10 pM) and a test drug solution were added to the buffer (3) and the mixture was incubated at 4° C. for 60 minutes. After incubation, the mixture was filtered through cell-harvester and the radioactivity of ^125I-apamin retained by the filter was counted with a gamma-counter. The inhibitory activity (IC50) of the test drug on specific binding of ^125I-apamine to the membrane was calculated. The binding level of ^125I-apamine in the presence of large excess(100 nM) of apamine was defined as non-specific binding of ^125I-apamin.
# Chain of acetylcholinesterase (AChE) (P22303 32-614, species assumed): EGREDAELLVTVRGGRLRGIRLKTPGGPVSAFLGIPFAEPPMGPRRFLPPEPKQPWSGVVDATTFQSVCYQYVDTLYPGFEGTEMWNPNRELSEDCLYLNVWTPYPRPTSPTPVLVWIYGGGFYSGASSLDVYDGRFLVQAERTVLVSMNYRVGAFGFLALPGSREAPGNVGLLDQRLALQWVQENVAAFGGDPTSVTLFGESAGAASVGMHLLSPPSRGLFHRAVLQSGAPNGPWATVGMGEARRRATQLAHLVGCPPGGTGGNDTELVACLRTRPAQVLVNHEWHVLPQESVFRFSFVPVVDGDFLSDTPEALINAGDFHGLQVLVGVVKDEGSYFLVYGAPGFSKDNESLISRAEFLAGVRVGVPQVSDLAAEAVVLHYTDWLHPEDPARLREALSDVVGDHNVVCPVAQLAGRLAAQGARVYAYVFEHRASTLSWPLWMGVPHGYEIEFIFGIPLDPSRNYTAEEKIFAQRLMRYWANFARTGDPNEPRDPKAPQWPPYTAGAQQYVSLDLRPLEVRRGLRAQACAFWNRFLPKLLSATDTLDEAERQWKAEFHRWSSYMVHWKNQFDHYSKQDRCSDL
Structure (SMILES),IC50 [3] [µM],Evacuation-promoting activity in guine pig (Effective dose: mg/kg p.o.) [2] [mg/kg],also measured
"CCN1CCc2cc(OC)c(OC)cc2[C@@H]1[C@H]1C[C@H](C(=O)N2CCN(c3ncnc4c3cnn4Cc3ccncc3)CC2)CC[C@]12c1cc(OC)c(OC)cc1CCN2C(=O)CCNC (racemic) [Example 165(2), (1R*,2R*(S),4R)-2′-[3-(methylamino)propionyl]-3′,4′-dihydro-6′,7′-dimethoxy-2-(2-ethyl-1,2,3,4-tetrahydro-6,7-dimethoxy-1-isoquinolyl)-4-[4-[1-(4-pyridylmethyl)-1H-pyrazolo[3,4-d]pyrimidin-4-yl]-1-piperazinyl]carbonyl-spiro[cyclohexane-1,1′(2′H)-isoquinoline]]",0.05,,IC50 [1]: 0.002 µM; Evacuation-promoting activity in guinea pig (Effective dose: mg/kg i.p.) [2]: 0.01 mg/kg
"CCN1CCc2cc(OC)c(OC)cc2C1[C@H]1C[C@H](C(=O)N2CCN(c3ncnc4c3nnn4C)CC2)CC[C@]12c1cc(OC)c(OC)cc1CCN2C(=O)CCN(C)C(=O)OCOC(=O)C(C)(C)C (relative stereo) [315 (2), (1R*,2R*(S*),4R*)-2′-[3-[N-(pivaloyloxy-methyloxycarbonyl)-N-methylamino]propionyl]-3′,4′-dihydro-6′,7′-dimethoxy-2-(2-ethyl-1,2,3,4-tetrahydro-6,7-dimethoxy-1-isoquinolyl)-4-[4-[3-methyl-3H-1,2,3-triazolo[4,5-d]pyrimidin-7-yl]-1-piperazinyl]carbonyl-spiro[cyclohexane-1,1′(2′H)-isoquinoline]]",,0.3,
"CCC(=O)OCOC(=O)N(C)CCC(=O)N1CCc2cc(OC)c(OC)cc2[C@]12CC[C@@H](C(=O)N1CCN(c3ncnc4c3cnn4Cc3ccncc3)CC1)C[C@@H]2C1c2cc(OC)c(OC)cc2CCN1CC (relative stereo) [313 (1), (1R*,2R*(S*),4R*)-2′-[3-[N-(propionyloxymethyloxycarbonyl)-N-methylamino]propionyl]-3′,4′-dihydro-6′,7′-dimethoxy-2-(2-ethyl-1,2,3,4-tetrahydro-6,7-dimethoxy-1-isoquinolyl)-4-[4-[1-(4-pyridylmethyl)-1H-pyrazolo[3,4-d]pyrimidin-4-yl]-1-piperazinyl]carbonyl-spiro[cyclohexane-1,1′(2′H)-isoquinoline]]",,0.1,
COc1cc2c(cc1OC)C1(CCC(C(=O)N3CCN(c4ncnc5c4cnn5Cc4ccccn4)CC3)CC1)N(CCCN)CC2 (stereo not drawn) [282 (2)],0.02,,
"CNCCCCN1CCc2cc(OC)c(OC)cc2C12CCC(C(=O)N1CCN(c3ncnc4c3cnn4Cc3ccccc3Cl)CC1)CC2 (stereo not drawn) [295 (4), (1α,4β)-2′-[4-(methylamino)butyl]-3′,4′-dihydro-6′,7′-dimethoxy-4-[4-[1-(2-chlorophenylmethyl)-1H-pyrazolo[3,4-d]pyrimidin-4-yl]-1-piperazinyl]carbonyl-spiro[cyclohexane-1,1′(2′H)-isoquinoline]]",,,IC50 [1]: 0.02 µM
CCN1CCc2cc(OC)c(OC)cc2C1C1CC(C(=O)N2CCN(c3ncnc4c3nnn4C)CC2)CCC12c1cc(OC)c(OC)cc1CCN2C(=O)CCNC (stereo not drawn) [Example 241(2)],0.01,,Evacuation-promoting activity in guinea pig (Effective dose: mg/kg i.p.) [2]: 0.03 mg/kg
CCCn1ncc2c(N3CCN(C(=O)C4CCC5(c6cc(OC)c(OC)cc6CCN5C(=O)CCNC)C(C5c6cc(OC)c(OC)cc6CCN5CC)C4)CC3)ncnc21 (stereo not drawn) [Example 236(2)],0.06,,
"CCC(=O)OCOC(=O)N(C)CCC(=O)N1CCc2cc(OC)c(OC)cc2[C@]12CC[C@@H](C(=O)N1CCN(c3ncnc4c3cnn4Cc3ccncc3)CC1)C[C@@H]2C1c2cc(OC)c(OC)cc2CCN1CC (relative stereo) [313 (2), (1R*,2R*(S*),4R*)-2′-[3-[N-(propionyloxymethyloxycarbonyl)-N-methylamino]propionyl]-3′,4′-dihydro-6′,7′-dimethoxy-2-(2-ethyl-1,2,3,4-tetrahydro-6,7-dimethoxy-1-isoquinolyl)-4-[4-[1-(4-pyridylmethyl)-1H-pyrazolo[3,4-d]pyrimidin-4-yl]-1-piperazinyl]carbonyl-spiro[cyclohexane-1,1′(2′H)-isoquinoline]]",,0.1,
"CCCn1ncc2c(N3CCN(C(=O)[C@@H]4CC[C@]5(c6cc(OC)c(OC)cc6CCN5C(=O)CCN(C)C(=O)c5ccccc5COC(=O)c5ccccc5)[C@@H](C5c6cc(OC)c(OC)cc6CCN5CC)C4)CC3)ncnc21 (relative stereo) [386 (2), (1R*,2R*(S*),4R*)-2′-[3-[N-(2-benzoyloxymethylbenzoyl)-N-methylamino]-propionyl]-3′,4′-dihydro-6′,7′-dimethoxy-2-(2-ethyl-1,2,3,4-tetrahydro-6,7-dimethoxy-1-isoquinolyl)-4-[4-[1-propyl-1H-pyrazolo[3,4-d]pyrimidin-4-yl]-1-piperazinyl]carbonyl-spiro[cyclohexane-1,1′(2′H)-isoquinoline]]",,1,
